Where “and” joins values, the source holds several entries; their conditions need not be identical. Identical values can stand only once. Like-named read-outs stand apart in the source and are kept apart here.
Columns and labels:
[1] = target: purified mPPase from P. falciparum (PfPPase-VP1) (Plasmodium falciparum, UniProt Q8IKR1); test: PfPPase-VP1 inhibition assay; type: biochemical; settings: purified PfPPase-VP1, 50 °C, three replicates; read-out: IC50
Procedure: Further hit validation was done against the purified mPPase from P. falciparum (PfPPase‐VP1) expressed in baculovirus‐infected insect cells. […] Overall, these compounds have higher IC50 values for PfPPase‐VP1 than for TmPPase.
(§1) All commercially obtained compounds had purities >90 % as specified by the vendor. Synthesized compounds were >95 % pure as determined by LC–MS and characterized by HRMS. The inhibition assay was carried out with purified TmPPase as previously reported.[22, 23, 24] The best hits 17 a, 19 a, and 20 a, were validated using eight compound concentrations in triplicate. Further hit validation was done against the purified mPPase from P. falciparum (PfPPase‐VP1) expressed in baculovirus‐infected insect cells (expression, purification and further enzyme analysis will be described in more detail elsewhere). 4 μL of the purified PfPPase‐VP1 (2.0 mg/mL) was reactivated in 96 μL of reactivation buffer, i. e. 20 mM 2‐(N‐morpholino)ethanesulfonic acid (MES) pH 6.5, 3.5 % (v/v) glycerol, 2 mM dithiothreitol (DTT) and 12 mg/mL L‐α‐phosphatidylcholine from soybean. For each tube strip, 3 μL of the reactivated PfPPase‐VP1 was added into 12 μL of reaction buffer (200 mM Tris‐Cl pH 8.0, 8.0 mM MgCl2, 333 mM KCl, 67 mM NaCl) and 25 μL of inhibitor solution. The reaction mixtures were incubated at 50 °C for 5 min and the assay was started with the addition of 10 μL of 2 mM sodium pyrophosphate and further incubation at 50 °C for 45 min. The reaction termination and colour development were done as earlier described.[22, 23, 24]

[2] = system: Plasmodium falciparum parasite strain 3D7; test: P. falciparum survival (growth) assay in erythrocyte culture, SYBR Green I; type: cell-based; settings: 72 h, strain 3D7 in human erythrocytes
Procedure: Plasmodium falciparum parasite strain 3D7 was used for testing the antiplasmodial activity of the test compounds. The parasite was maintained in culture as described previously.[37] Briefly, parasites were cultured in O+ human erythrocytes at 5 % haematocrit in RPMI‐1640 medium supplemented with 0.5 % Albumax II (Gibco, Carlsbad, CA, USA), 200 μM hypoxanthine (Sigma, St. Louis, MO, USA) and 20 μg/mL gentamycin (Gibco). Parasites were synchronized with the sorbitol method as described.[38] Test compounds were dissolved in DMSO to make a stock solution of 10 mM or 50 mM. Two‐fold serial dilutions of the test compounds were made in the culture medium to cover either the range of 100 μM–100 nM or 400 μM–390 nM. 50 μL of each dilution were mixed in 96‐well plate with 150 μL of 2 % haematocrit of 0.5 % parasitemia (ring stage). Compound dilutions were also mixed with 150 μL of 2 % haematocrit of uninfected erythrocytes to serve as baselines for the activity of the coloured compounds. DMSO concentration in the highest compound concentration was 0.8 %. After 72 h incubation at 37 °C, the parasite growth was quantified using fluorescent SYBR Green I®‐based assay as described.[39] The half‐maximal inhibitory concentration (IC50) of the test compounds was assessed using the non‐linear regression fit model in Prism 7 (GraphPad Software, San Diego, CA, USA). The potent anti‐malarial drug, artemisinin, was used in parallel as a positive control. Each concentration of the test compounds was tested in duplicate and the assay was repeated three times. The mean and standard deviation of the three repeats were used to calculate the IC50.

[3] = target: T1, Thermotoga maritima mPPase (TmPPase) (Thermotoga maritima, UniProt Q9S5X0); test: TmPPase inhibition assay (96-well); type: biochemical
Text: We started from the previously identified 5‐arylisoxazole‐3‐carboxylate core present in 2–5 (Figure 1, highlighted in blue). Using KNIME,[30] we did a substructure search for commercial analogues in the ZINC12 database[31] […] Therefore, we manually picked compounds from a diverse collection provided by a single vendor (Ambinter, 174 matches for the substructure query). Out of the search results, we selected fifteen isoxazoles for testing in vitro. For all compounds in this manuscript, we tested activity using a 96‐well based assay that detects the inhibition of TmPPase.[22, 23, 24]
as §1
6 IC50 plots from the TmPPase inhibition assay
The blue and black curves refer to compounds presented already in the main article and only shown in the Supporting Information, respectively. IC50, half maximal inhibitory concentration; CI95%, half maximal inhibitory concentration expressed as a 95% confidence interval (given in square brackets); […]
IC50 determinations were done using R 3.6.1[2] and the n-parameter logistic regression (nplr) package[3] version 0.1.7. In this package, the weighted nplr, given x (compound concentrations) and y values (activity) is calculated using Richard’s equation (eq 1) where B and T are the bottom and top asymptotes, respectively; b and xmid are the Hill slope and the x coordinate at inflexion point, respectively; and s is an asymmetric coefficient. The model parameters were simultaneously optimized using non-linear minimization, using a sum of squared errors.[4] The standard error of the model, defined as the squared error on the fitted values, is used to estimate a confidence interval at 95% on the predicted IC50 values.

[4] = Colloidal aggregation by nephelometry under TmPPase assay conditions; type: physicochemical
Procedure: In order to rule out a cause of false positives, colloidal aggregation in the TmPPase model assay was evaluated for compounds 17 a, 19 a and 20 a at six concentrations (100 μM, 50 μM, 20 μM, 10 μM, 1 μM, and 0.1 μM) using the assay conditions (Figure S3).
3 Aggregation data for 17a, 19a and 20a (Figure S3)
Potential colloidal aggregation in the TmPPase model system was studied by nephelometric methods using Nepheloskan Ascent® (Labsystems, Finland). The original assay conditions were simulated, and the light scattering of potential aggregates in the mixture was studied at six concentrations (100 µM, 50 µM, 20 µM, 10 µM, 1 µM and 0.1 µM). Aggregation of the blank and compounds 17a, 19a and 20a was measured as quadruplicates from one independent experiment at three different voltages (300 V, 400 V and 500 V) at room temperature. […]
values at 10 µM, 1 µM and 0.1 µM were similar to those observed by the blank, indicating merely […]
Figure S3. Aggregation data for compounds 17a, 19a and 20a. The data, measured in relative nephelometric units (RNU), is shown as the mean ± SD and normalized to the blank.
(1 picture or pasted object on this page, not shown here)

[5] = target: T1, Thermotoga maritima mPPase (TmPPase); parameters: method as in PMID 31131322, PMID 32292570; settings: previously reported inhibitors, read-out: IC50 [CI95%]; cited from earlier work
[6] = system: Plasmodium falciparum parasite strain 3D7; parameters: method as in PMID 32292570; settings: cited from earlier work

T1 sequence (Q9S5X0 whole entry): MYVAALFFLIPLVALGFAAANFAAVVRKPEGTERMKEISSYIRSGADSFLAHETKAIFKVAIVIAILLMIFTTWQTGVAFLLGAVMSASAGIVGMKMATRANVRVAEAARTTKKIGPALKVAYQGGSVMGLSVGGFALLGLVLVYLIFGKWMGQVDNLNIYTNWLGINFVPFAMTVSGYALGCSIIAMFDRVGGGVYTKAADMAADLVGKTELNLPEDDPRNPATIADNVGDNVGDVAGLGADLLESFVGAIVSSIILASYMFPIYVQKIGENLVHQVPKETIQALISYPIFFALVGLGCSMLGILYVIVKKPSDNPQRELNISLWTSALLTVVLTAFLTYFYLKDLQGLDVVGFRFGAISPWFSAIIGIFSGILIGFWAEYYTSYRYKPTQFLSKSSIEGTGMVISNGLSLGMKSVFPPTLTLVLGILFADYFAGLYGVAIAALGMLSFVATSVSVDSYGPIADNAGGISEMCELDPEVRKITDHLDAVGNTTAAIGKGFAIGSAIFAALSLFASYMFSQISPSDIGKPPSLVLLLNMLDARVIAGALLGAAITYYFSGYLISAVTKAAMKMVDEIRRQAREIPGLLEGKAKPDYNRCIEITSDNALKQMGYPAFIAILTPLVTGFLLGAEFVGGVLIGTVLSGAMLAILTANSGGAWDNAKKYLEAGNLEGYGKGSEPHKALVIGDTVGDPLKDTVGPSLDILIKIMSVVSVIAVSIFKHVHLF
Sequence of purified mPPase from P. falciparum (PfPPase-VP1) (Q8IKR1 entry or part of it): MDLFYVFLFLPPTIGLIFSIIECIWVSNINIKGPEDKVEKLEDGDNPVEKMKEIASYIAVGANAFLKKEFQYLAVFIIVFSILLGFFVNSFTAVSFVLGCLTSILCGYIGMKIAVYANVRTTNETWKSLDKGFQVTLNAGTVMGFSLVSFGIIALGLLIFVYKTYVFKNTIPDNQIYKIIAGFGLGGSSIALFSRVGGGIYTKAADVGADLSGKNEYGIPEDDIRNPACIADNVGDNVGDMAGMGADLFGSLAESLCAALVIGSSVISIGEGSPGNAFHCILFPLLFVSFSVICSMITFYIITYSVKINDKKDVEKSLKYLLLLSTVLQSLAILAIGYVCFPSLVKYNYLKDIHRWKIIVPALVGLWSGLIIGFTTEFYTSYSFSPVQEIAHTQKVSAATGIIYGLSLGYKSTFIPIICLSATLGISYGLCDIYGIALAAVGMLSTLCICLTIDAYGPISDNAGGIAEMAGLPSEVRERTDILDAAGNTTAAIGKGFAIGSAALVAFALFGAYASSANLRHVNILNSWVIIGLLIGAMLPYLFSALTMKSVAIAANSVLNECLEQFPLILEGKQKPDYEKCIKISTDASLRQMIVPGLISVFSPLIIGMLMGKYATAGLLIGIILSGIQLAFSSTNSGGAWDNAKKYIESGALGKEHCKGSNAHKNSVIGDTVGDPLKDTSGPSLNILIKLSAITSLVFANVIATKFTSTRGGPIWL

| SMILES | IC50 [1] | IC50 ([2]; Plasmodium falciparum, 3D7, Erythrocyte) [µM] | IC50 [2] [µM] | IC50 ([3]; TmPPase inhibition, NA = IC50 not assigned, read-out: IC50 [CI95%]) [µM] | fold loss in activity compared to 2 ([3]; TmPPase, 17 a versus 2) [fold] | concentration of aggregate formation ([4]; TmPPase assay conditions, six concentrations 100–0.1 μM) | colloidal aggregation ([4]; at 10 µM, 1 µM and 0.1 µM) | colloidal aggregation ([4]; at 100 µM, 50 µM and 20 µM) | IC50 [5] [µM] | activity ex vivo against P. falciparum [6] |
| --- | --- | --- | --- | --- | --- | --- | --- | --- | --- | --- |
| Cc1cc(C)cc(-c2cc(C(=O)Oc3ccccc3Br)nc3cc(Br)nn23)c1 [17 a, 2‐Bromophenyl 2‐bromo‐7‐(3,5‐dimethylphenyl)pyrazolo[1,5‐a]pyrimidine‐5‐carboxylate] | 58 µM and 57.7 µM | 31 | 30.6 | 14 | 2 | above 20 μM | negligible/no detectable aggregation | aggregate formation | – | – |
| Cc1cc(C)cc(-c2cc(C(=O)Oc3ccccc3Br)no2)c1 [compound 2] | – | – | – | – | – | – | – | – | 6.9 | retained activity |
